Reference: patent publication US9629822B2, “Flavonoid based antiviral targets” (UNIVERSITY OF CENTRAL FLORIDA RESEARCH FOUNDATION, INC., priority 2012, dated 2017)
Entries after “also recorded” stand apart in the source; their conditions may differ. Read-outs that look alike come from different tables or passages of the source.

How the values were obtained:
[1] = target: T1, US28 receptor (Human cytomegalovirus, UniProt P69332); assay: PathDetect trans Elk1 luciferase reporter gene assay in US28-transfected 293T HEK cells; assay type: cell-based, Human Cytomegalovirus (HCMV); settings: for type of activity on the US28 receptor (agonist / inverse agonist / none), in words: Elk1 reporter, US28-transfected HEK cells; for Efficacy(%): maximum intrinsic activity from dose-response curve; for Efficacy(%) / Emax: negative = inverse agonism; for Emax: read-out: Efficacy(%), maximum intrinsic activity from dose-response curve
T1 construct: expressed in transfected cells; host or cells: HEK 293T cells, transiently transfected
Source text: Having generated a homologous series of chalcones and flavones, their ability to interact with the US28 receptor in human embryonic kidney (HEK) cells was investigated using an Elk-1 gene reporter assay (FIG. 2). HEK cells were transfected with either an empty vector (i.e., mock cells) or with a vector carrying US 28. These matched HEK cells provided a means to evaluate off-target effects as well as innate drug toxicity. As many of the flavonoid drugs were not water-soluble, all drug stock solutions were made in 100% dimethylsulfoxide (DMSO). The final DMSO concentration for each cell-based experiment, however, was 1% DMSO. To account for the presence of DMSO, 1% DMSO controls were run in parallel. […] values of the homologous series were also determined in Chinese hamster ovary (CHO) cells in order to assess the relative toxicities of each member of the series in a different cell line (see Table 1).
Interaction with the US28 receptor was measured by a decrease in luminescence using a firefly (Photinus pyralis) luciferase-based PathDetect Elk1 gene reporter assay (FIG. 2).^23,24 This assay assessed the modulation of US28-mediated activation of mitogen-activated protein kinase (MAPK) signaling pathways (results are shown in Table 1). […] Such compounds which reduce MAPK signaling will have direct utility in the treatment of proliferative disorders including but not limited cancer.
After transfection the US28 is expressed and activates MAPK. The MAPK phosphorylates the activator domain of the GAL4dbd/Elk1 fusion protein, and causes its dimerization. The dimer then binds to the GAL4 UAS region of the reporter gene and allows for luciferase transcription. The luciferase mRNA is then translated and the luciferase protein is detected via luminescence by the use of the Bright-Glo reagent.
(§1) The efficacy of each compound on the US28 receptor was investigated in luciferase based reporter gene assay PathDetect trans Elk1 (Agilent, Stratagene)^23 as described previously.^13 Briefly, the human embryonic kidney (HEK) 293T cells were transiently-transfected with 0.1 μg Elk1, 5 μg Luc, and 5 μg of US28 vector or empty pcDNA3 vector (mock cells). Five hours after transfection, the cells were washed with DMEM containing 1% FBS, harvested, seeded in a white half-area 96-well plate (20,000 cells/well) and incubated with the indicated concentrations of test compounds. The incubation buffer consisted of DMEM, 1% FBS, 2 mM L-glutamine, 1% penicillin-streptomycin and 1% DMSO. The cells were incubated at 37° C. in the humid atmosphere with 5% CO2 for an additional 20-24 hours. The luciferase substrate BrightGlo (Promega) was used according to the manufacturer's instruction. The luminescence intensity was acquired using microplate reader Victor3V (Perkin-Elmer). The basal luminescence of mock transfected cells was approximately 500 RLU and the basal luminescence of US28-transfected cells was 4-5-fold higher (2000-2500 RLU). As the inhibitors gave differential responses in terms of their ability to reduce US 28 mediated signaling, their relative EC50 values were determined by dosing the US-28 transfected HEK cells with increasing concentrations of each compound. In this case, the EC50 value is the concentration of the compound needed to provoke a response halfway between the compound's maximal response (change in luminescence) and the no-compound control in the same US-28 transfected cell line. A plot of relative luminescence versus log of the compound concentration provided a dose-response curve from which the % efficacy was derived via non-linear regression methods using the algorithms in PRISM 5.0 (GraphPad Software, San Diego, Calif.).

[2] = test system: mock transfected 293T HEK cells; assay: PathDetect Elk1 luminescence in mock transfected (empty pcDNA3 vector) 293T HEK cells, off-target effect; assay type: cell-based, human; settings: for Effect(%) on mock cells with each drug at 10 μM / activation at 10 µM: 10 μM vs 1% DMSO control, Equation 1; for activation at 10 µM: Homo sapiens, read-out: Effect(%) on mock cells with each drug at 10 μM
Procedure: As a control, the empty pcDNA3 plasmid vector and the components of PathDetect system were also used for mock transfection of 293T HEK cells. Controls containing 1% DMSO were run in parallel. The relative luminescence results found with mock transfected 293T HEK cells treated with 10 μM drug and the untreated 1% DMSO control were compared via the following Equation 1. % Effect on mock cells=(100%×(mock cell luminescence/DMSO control luminescence))−100% Equation (1)
This equation was derived in order to assess the net effect each compound had on non-US28 containing HEK cells transfected via the same protocol. These control experiments were critical as they provided a method to address off target effects such as compound toxicity, which could give rise to false positives in the PathDetect assay.
Compounds, which had no off-target effects, gave nearly identical luminescence values in both the mock cells and the 1% DMSO control (i.e., a mock cell luminescence/DMSO control luminescence ratio of 1) and a net effect of 0% via Equation 1 (e.g., 9j: 0% in Table 1). In contrast, compounds that were stimulatory to the treated HEK cells gave higher mock cell luminescence than the DMSO control, a ratio >1, and a net positive value in Equation 1 for the % effect on mock cells (e.g., 8f: 290%). On the other hand, compounds that were intrinsically toxic gave lower luminescence in the treated mock cells than the DMSO control, a ratio below 1, and a net negative value for the % effect on mock cells (e.g., 8d: ˜42%).
as §1

[3] = test system: CHO cells; assay: CHO cell toxicity, MTS assay, 48 h; assay type: cell-based, Chinese hamster; settings: 37° C., MTS reagent; for IC50: Cricetulus griseus, CHO, read-out: CHO 48 h IC50 value
Procedure: In each case, the chalcone system 8 was more toxic than the corresponding ring-closed system, 9.
The CHO assay was conducted to assess the general toxicity of each flavonoid drug. Briefly, cell growth was assayed in sterile 96-well microtiter plates (Costar 3599, Corning, N.Y., USA) in the presence of each drug. Experiments were conducted in triplicate. CHO cells were plated at 10,000 cells/mL. Drug solutions were prepared in 100% DMSO and dosed so that the final DMSO concentration was <1%. For example, 1 μL of drug solution was added to the CHO cells plated in each well in 100 μL of media. Drug additions occurred after an initial overnight incubation of CHO cells in each well. After drug was added, the cells were incubated in 5% CO2 for 48 h at 37° C. The MTS reagent (Promega Cell Titer 96 Aqueous non-radioactive cell proliferation reagent) was added (20 μL) and the CHO cells were incubated for an additional 4h and then absorbance at 490 nm was measured on a BioTek Synergy MX plate reader. […] IC50 values were determined from the corresponding plot of relative absorbance at 490 nm vs drug concentration.

[4] = TZMbI assay for cell safety (cell viability and growth, CytoTox Glo); settings: human, TZMbI cells, read-out: % decrease in viability compared to 0.1% DMSO vehicle based on viable cell luminescence
Procedure: Assays were performed below in accordance with the procedures set forth in The Journal of Immunology, 2006, 176, pp. 6900-905; AIDS Research and Human Retroviruses, 2004, 20:11, pp. 1157-1665.^32,33 TZMbI assays for cell safety were performed to identify potential anti-viral compounds. TZMbI assays for cell safety were performed to identify potential anti-viral compounds per the methods.

[5] = test system: HIV-1 BaL; assay: Anti-HIV assay (luciferase, HIV-1 BaL infection); assay type: cell-based
Procedure: Assays were performed below in accordance with the procedures set forth in The Journal of Immunology, 2006, 176, pp. 6900-905; AIDS Research and Human Retroviruses, 2004, 20:11, pp. 1157-1665.^32,33 Cells were treated with 2 ng/mL p24 of HIV-1 BaL administered; MOI approx 0.02 (see refs 32, 33). Cells were treated with 2 ng/mL p24 of HIV-1 BaL administered; MOI approx 0.02 (see refs 32, 33).

[6] = pEC50 ± SEM, 293T HEK cells transiently expressing US28, Elk1 reporter
[7] = 10 μM, Experiment 1B, 2 ng/mL p24 HIV-1 BaL
[8] = Human immunodeficiency virus 1, BAL, 10 μM, Experiment 1B, 2 ng/mL p24 HIV-1 BaL
[9] = EC50 (μM), 293T HEK cells transiently expressing US28, Elk1 reporter, NE = no effect when tested at 10 μM of compound

T1 sequence (P69332 whole entry): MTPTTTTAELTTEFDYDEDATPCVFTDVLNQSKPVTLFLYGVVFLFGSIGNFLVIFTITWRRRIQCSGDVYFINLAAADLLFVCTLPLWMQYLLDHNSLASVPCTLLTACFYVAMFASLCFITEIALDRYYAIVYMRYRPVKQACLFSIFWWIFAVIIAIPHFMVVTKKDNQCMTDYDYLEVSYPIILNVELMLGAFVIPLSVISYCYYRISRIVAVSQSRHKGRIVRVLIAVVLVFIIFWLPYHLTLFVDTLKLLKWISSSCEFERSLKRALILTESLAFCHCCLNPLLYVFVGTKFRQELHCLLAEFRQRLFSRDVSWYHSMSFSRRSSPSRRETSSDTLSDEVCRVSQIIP

COc1ccccc1/C=C/C(=O)c1c(O)cccc1OCc1ccccc1 [Compound 8k, (E)-1-(2-(Benzyloxy)-6-hydroxyphenyl)-3-(2-methoxyphenyl)prop-2-en-1-one]
EC50 (μM) ([1]; 293T HEK cells transiently expressing US28, Elk1 reporter, NE = no effect when tested at 10 μM of compound): Toxic
toxicity at 10 μM in HEK cells, in words ([2]; 10 μM): very toxic
Effect(%) on mock cells with each drug at 10 μM [2]: Toxic

COc1ccccc1/C=C/C(=O)c1ccccc1O [Compound 8a, (E)-1-(2-Hydroxyphenyl)-3-(2-methoxyphenyl)prop-2-en-1-one]
type of activity on the US28 receptor (agonist / inverse agonist / none), in words [1]: agonism; also recorded: agonist activity
Efficacy(%) [1]: 67%
EC50 [1, 6]: 1.45 µM
Emax [1]: 67%
activation at 10 µM [2]: 8%
IC50 [3]: 25.5 ± 2.7 µM
cytotoxicity at 10 μM ([4]; Experiment 1A): 18.7%
RLU (relative luciferase units) [5, 7]: 1218.5 RLU
inhibition at 10 µM [5, 8]: -28.8%

CC[C@H](C)[C@@H]1NC(=O)CNC(=O)[C@H](CCCCN)NC(=O)CNC(=O)[C@@H]2CSSC[C@H](NC1=O)C(=O)N[C@@H](CCCNC(=N)N)C(=O)N[C@H]1CSSC[C@H](NC(=O)[C@H](CCCNC(=N)N)NC(=O)[C@@H]3CSSC[C@H](NC(=O)[C@H]([C@@H](C)CC)NC1=O)C(=O)NCC(=O)N[C@@H](CCCNC(=N)N)C(=O)NCC(=O)N[C@@H]([C@@H](C)CC)C(=O)N3)C(=O)N[C@@H]([C@@H](C)CC)C(=O)N2 [RC-101, reference compound]
cytotoxicity at 10 μM ([4]; Experiment 2A): -1.43%
Mean % Inhibition of Infection ([5]; 10 μM, Experiment 2B): 99.38%
RLU (relative luciferase units) ([5]; 10 μM, Experiment 2B): 1.67 RLU

COc1ccc(Br)cc1-c1cc(=O)c2c(OCc3ccccc3)cccc2o1 [Compound 11b, 5-(Benzyloxy)-2-(5-bromo-2-methoxyphenyl)-4H-chromen-4-one]
type of activity on the US28 receptor (agonist / inverse agonist / none), in words [1]: strong inverse agonism activity; also recorded: full inverse agonist
Efficacy(%) [1]: −89%
EC50 [1, 6]: 3.47 µM
Emax [1]: -89%
CHO 48 h IC50 value (μM) [3]: high CHO IC50 value; also recorded: essentially non-toxic; also recorded: not toxic
IC50 [3]: 96.6 µM
cytotoxicity at 5 μM ([4]; 5 μM, Experiment 2A): -6.17%
cytotoxicity at 10 μM ([4]; Experiment 1A): 6.4%
cytotoxicity at 10 μM ([4]; Experiment 2A): -5.05%
cytotoxicity at 20 μM ([4]; 20 μM, Experiment 2A): -18.1%
cytotoxicity at 40 μM ([4]; 40 μM, Experiment 2A): -29.2%
cytotoxicity at 80 μM ([4]; 80 μM, Experiment 2A): -1.51%
RLU (relative luciferase units) ([5]; 5 μM, Experiment 2B): 24.27 RLU
RLU (relative luciferase units) [5, 7]: 781.6 RLU
RLU (relative luciferase units) ([5]; 10 μM, Experiment 2B): 34.09 RLU
RLU (relative luciferase units) ([5]; 20 μM, Experiment 2B): 40.47 RLU
RLU (relative luciferase units) ([5]; 40 μM, Experiment 2B): 49.22 RLU
RLU (relative luciferase units) ([5]; 80 μM, Experiment 2B): 62.68 RLU
inhibition at 5 µM ([5]; Human immunodeficiency virus 1, BAL, 5 μM, Experiment 2B): -6.17%
inhibition at 10 µM [5, 8]: 16.5%
inhibition at 10 µM ([5]; Human immunodeficiency virus 1, BAL, 10 μM, Experiment 2B): -15.1%
inhibition at 20 µM ([5]; Human immunodeficiency virus 1, BAL, 20 μM, Experiment 2B): -18.1%
inhibition at 40 µM ([5]; Human immunodeficiency virus 1, BAL, 40 μM, Experiment 2B): -29.2%
inhibition at 80 µM ([5]; Human immunodeficiency virus 1, BAL, 80 μM, Experiment 2B): -1.51%

COc1ccc(Br)cc1/C=C/C(=O)c1c(O)cccc1OC [Compound 8f, (E)-3-(5-bromo-2-methoxyphenyl)-1-(2-hydroxy-6-methoxyphenyl)prop-2-en-1-one]
EC50 [1, 9]: 6 µM
Efficacy(%) [1]: ~95%
Emax [1]: ~95%
Effect(%) on mock cells with each drug at 10 μM [2]: 290%
activation at 10 µM [2]: 290%
IC50 [3]: 6.1 ± 0.8 µM
cytotoxicity at 10 μM ([4]; Experiment 1A): 91.3%
RLU (relative luciferase units) [5, 7]: 45.9 RLU
inhibition at 10 µM [5, 8]: 95.1%

COc1ccc(Br)cc1/C=C/C(=O)c1ccccc1O [Compound 8b, (E)-3-(5-Bromo-2-methoxyphenyl)-1-(2-hydroxyphenyl)prop-2-en-1-one]
EC50 [1, 9]: 7.8 µM
Efficacy(%) [1]: ~44%
Emax [1]: ~44%
IC50 [3]: 8.7 ± 0.3 µM
cytotoxicity at 10 μM ([4]; Experiment 1A): 64.2%
RLU (relative luciferase units) [5, 7]: 202.3 RLU
inhibition at 10 µM [5, 8]: 78.6%

COc1ccccc1-c1cc(=O)c2c(OCc3ccccc3)cccc2o1 [Compound 11a, 5-(Benzyloxy)-2-(2-methoxyphenyl)-4H-chromen-4-one]
EC50 [1, 9]: 7.3 µM
IC50 [3]: 17.5 ± 1.9 µM
